Reference: patent US20070088043A1, “Novel HDAC inhibitors” (ORCHID RESEARCH LABORATORIES LIMITED., priority 2005, published 2007)
pIC50: −log10 of the molar value.

Assays:
[1] = test system: HDAC (Mouse Liver Extract); assay: Histone Deacetylase (HDAC) Inhibition Assay using Boc-Lys (Ac)-AMC Substrate; format: biochemical; conditions: mouse liver enzyme, NA = No Activity; for HDAC Inhibition 1 μM / HDAC Inhibition 10 μM: in % (unit assumed)
Excerpt: HDAC Activitv Screening: Histone Deacetylase (HDAC) Inhibition Assay using Boc-Lys (Ac)-AMC Substrate:
Inhibition of HDAC has been implicated to modulate transcription and to induce apoptosis or differentiation in cancer cells. The fluorometric assay provides a fast and fluorescence based method that eliminates radioactivity, extractions or chromatography, as used in traditional assays. The assay based on two steps. First, the HDAC fluorometric substrate, which comprises an acetylated lysine side chain, is incubated with a sample containing HDAC activity (Mouse Liver Extract). Deacetylation of the substrate sensitizes the substrate, in the second step; treatment with the Trypsin stop solution produces a fluorophore that can be easily analyzed using fluorescence plate reader.
Assay was done in 96 well black microplate and total volume of the assay is 100 ul. Mouse liver enzyme is diluted 1:6 with HDAC buffer. Enzyme cocktail made of 10 ul of diluted enzyme and 30 ul of HDAC buffer. 40 ul of enzyme cocktail dispensed into each well. 10 ul of different concentrations of inhibitor added in to each well, except enzyme control well. Preincubated the plate at 30° C. for 5 minutes. The HDAC reaction is started by adding 50 ul of HDAC substrate (Boc-Lys (Ac)-AMC Substrate) solution. Incubated the plate at 30° C. for 30 minutes. Adding 100 ul of Trypsin stop solution stops the reaction. The plate is incubated again at 30° C. for 20-30 minutes. The release of AMC is monitored by measuring the fluorescence at excitation wavelength of 365 or 360 nm and emission wavelength of 440 or 460 nm. Buffer and substrate alone kept for blank subtraction. (Dennis Wegener et al, Anal. Biochem, 321, 2003, 202-208).

[2] = test system: NCIH460, HCT116, MDAMB231/U251; assay: Anti-cancer screen, mean GI50 over the cell lines; format: cell-based; conditions: in µM
Protocol: (§1) Experimental drugs are screened for anti-cancer activity in three cell lines for their GI50, TGI and LC50 values (using five concentrations for each compound). The cell lines are maintained in DMEM containing 10% fetal bovine serum. 96 well micro titer plates are inoculated with cells in 100 μL for 24 h at 37° C., 5% CO2, 95% air and 100% relative humidity. 5000 HCT 116 cells/well, 5000 NCIH 460 cells/well and 5000 U251 cells/well are plated. A separate plate with these cell lines is also inoculated to determine cell viability before the addition of the compounds (T0).
(§2) Following 24-hour incubation, experimental drugs are added to the 96 well plates. Each plate contains one of the above cell lines and the following in triplicate: five different concentrations (0.01, 0.1, 1, 10 and 100 μM) of four different compounds, appropriate dilutions of a cytotoxic standard and control (untreated) wells. Compounds are dissolved in DMSO to make 20 mM stock solutions on the day of drug addition and frozen at −20° C. Serial dilutions of these 20 mM stock solutions are made in complete growth medium such that 100 μL of these drug solutions in medium, of final concentrations equaling 0.01, 0.1, 1, 10 and 100 μM can be added to the cells in triplicate. Standard drugs whose anti-cancer activity has been well documented and which are regularly used are doxorubicin and SAHA.
(§3) For To measurement, 24 hours after seeding the cells, 10 μL of 3-(4,5-Dimethyl-2-thiazolyl)-2,5-diphenyl-2H-tetrazolium (MTT) solution per well is added and incubation carried out for 3 hours at 37° C., 5% CO2, 95% air and 100% relative humidity, protected from light. Cells incubated with compounds for 48 hours are treated similarly except with the addition of 20 μL MTT solution per well and a subsequent incubation under the same conditions. After 3 hours of MTT incubation, well contents are aspirated carefully followed by addition of 150 μL DMSO per well. Plates are agitated to ensure solution of the formazan crystals in DMSO and absorbance read at 570 nm. […]

HCT 116 cells = assay: Anti-cancer screen (MTT), HCT116; format: cell-based; conditions: Homo sapiens, HCT-116, HCT116 cells, 48 hours, MTT; for GI50: concentration to decrease % growth by 50%; for IC100: concentration to decrease % growth by 100%, read-out: HCT116 TGI; for LC50: concentration to decrease % growth by 150%
Protocol: as §1, §2, §3

NCIH 460 cells = assay: Anti-cancer screen (MTT), NCIH460; format: cell-based; conditions: Homo sapiens, NCI-H460, NCIH460 cells, 48 hours, MTT; for GI50: concentration to decrease % growth by 50%; for IC100: concentration to decrease % growth by 100%, read-out: NCIH460 TGI; for LC50: concentration to decrease % growth by 150%
Protocol: as §1, §2, §3

MDAMB231/U251 = assay: Anti-cancer screen (MTT), MDAMB231/U251; format: cell-based; conditions: MDAMB231/U251 cells, 48 hours; for GI50: concentration to decrease % growth by 50%; for IC100: concentration to decrease % growth by 100%, read-out: MDAMB231/U251 TGI; for LC50: concentration to decrease % growth by 150%
Protocol: as §1, §2, §3

SMILES	HDAC Inhibition 1 μM [1]	HDAC Inhibition 10 μM [1]	Mean GI50 [2]	GI50 (HCT 116 cells) [µM]	IC100 (HCT 116 cells) [µM]	LC50 (HCT 116 cells) [µM]	GI50 (NCIH 460 cells) [µM]	IC100 (NCIH 460 cells) [µM]	LC50 (NCIH 460 cells) [µM]	GI50 (MDAMB231/U251) [µM]	IC100 (MDAMB231/U251) [µM]	LC50 (MDAMB231/U251) [µM]	pIC50 [1]
CCOc1ccc2nc(NC(=O)CN3CCN(C(=O)CCCCCCC(=O)N(O)C(C)=O)CC3)sc2c1 [Example 37, 8-{4-[2-(6-Ethoxy-1,3-benzothiazol-2-ylamino)-2-oxoethyl]piperazin-1-yl}-N-acetyl-N-hydroxy-8-oxooctanamide]	55.57	94.70	17.00	7	44	> 100	40	74	> 100	4	45	95	
CC(=O)SCCCCCC(=O)N1CCN(CC(=O)Nc2nc3ccc(C)cc3s2)CC1 [Example 12, 2-[4-(6-Thioacetylhexanoyl)piperazin-1-yl]-N-(6-methyl-1,3-benzothiazol-2-yl)acetamide]	57.31	85.59	17	7	> 100	≥ 100	25	75	> 100	19	65	> 100	
O=C(CCCCCCC(=O)N1CCN(CC(=O)Nc2nc3ccccc3s2)CC1)NO [Example 29, 8-{4-[2-(1,3-Benzothiazol-2-ylamino)-2-oxoethyl]piperazin-1-yl}-N-hydroxy-8-oxo octanamide]	61.41	97.00	13.9	30	> 100	> 100	0.8	93	> 100	11	55	95	6.12
Cc1ccc2nc(NC(=O)CN3CCN(C(=O)CCCCCS)CC3)sc2c1 [Example 25, N-6-methyl-1,3-benzothiazol-2-yl-2-[4-(6-mercaptohexanoyl)piperazin-1-yl]acetamide]		3.6	4.2	3.5	> 100	> 100	9	> 100	> 100	0.07	0.8	> 100	
Cc1cccc2sc(NC(=O)CN3CCN(C(=O)CCCCCCC(=O)NOCc4ccccc4)CC3)nc12 [Example 40, 8-{4-[2-(4-Methyl-1,3-benzothiazol-2-ylamino)-2-oxoethyl]piperazin-1-yl}-N-hydroxybenzyl-8-oxo octanamide]		4.1	9.5	4.5	32	> 100	24	85	> 100	0.1	0.5	> 100	
CC(=O)SCCCCCC(=O)N1CCN(CC(=O)Nc2nc3ccccc3s2)CC1 [Example 6, 2-[4-(6-Thioacetylhexanoyl)piperazin-1-yl]-N-(1,3-benzothiazol-2-yl)acetamide]	63.40	83.30	2.00	4.5	42	> 100	0.8	53	> 100	0.01	0.4	> 100	7.21
CC(=O)SCCCCCC(=O)N1CCN(C(=O)CNc2nc3ccc(C)cc3s2)CC1 [Example 3, N-{2-[4-(6-thioacetylhexanoyl)piperazin-1-yl]-2-oxoethyl}-6-methyl-1,3-benzo thiazol-2-amine]	42.40	86.74	>100	49	99	> 100	> 100	> 100	> 100	48	> 100	> 100	
CC(=O)N(O)C(=O)CCCCCCC(=O)N1CCN(CC(=O)Nc2nc3ccccc3s2)CC1 [Example 39, 8-{4-[2-(1,3-Benzothiazol-2-ylamino)-2-oxoethyl]piperazin-1-yl}-N-acetyl-N-hydroxy-8-oxo octanamide]	81.4	96.6	24.7	8	57	98	44	48	> 100	22	52	78	6.26
CC(=O)SCCCCC(=O)N1CCN(CC(=O)Nc2nccs2)CC1 [Example 7, 2-[4-(5-Thioacetylpentanoyl)piperazin-1-yl]-N-(1,3-thiozole-2-yl)acetamide]	27.76	45.96	67.50	85	> 100	> 100	50	88	> 100	> 100	> 100	> 100	
CC(=O)SCCCCC(=O)N1CCN(C(=O)CNc2nc3ccccc3s2)CC1 [Example 1, N-{2-[4-(5-thioacetylpentanoyl)piperazin-1-yl]-2-oxoethyl}-1,3-benzothiazol-2-amine]	10.48	38.59	>100	> 100	> 100	> 100	> 100	> 100	> 100	80	> 100	> 100	
CC(=O)SCCCCCC(=O)N1CCN(CC(=O)Nc2ccccc2)CC1 [Example 18, 2-[4-(6-Thioacetylhexanoyl)piperazin-1-yl]-N-(phenyl-2-yl)acetamide]	65.15	94.50	46.50	63	> 100	> 100	30	> 100	> 100	> 100	> 100	> 100	
